Patent US20050239751A1, “Heterocyclic anti-viral compounds comprising metabolizable moieties and their uses” (Rigel Pharmaceuticals, Inc., priority 2004, published 2005)
pIC50: −log10 of the molar value. Read-outs that look alike come from different tables or passages of the source.

How the values were obtained:
[1] = tested on: HCV NS5A protein in 9-13 replicon cells; assay: Replicon quantitative Western blot assay (HEPC_REPLICON-ICWESTERN); assay type: cell-based; conditions: Hepatitis C virus, read-out: HEPC_REPLICON-ICWESTERN Result Value
Procedure: Alternatively, the inhibitory activity of the metabolically active agents of the prodrugs can be confirmed using a quantitative Western immunoblot assay utilizing antibodies specific for HCV non-structural proteins, such as NS3, NS4A NS5A and NS5B. In one embodiment of this assay, replicon cells are treated with varying concentrations of test prodrug to determine the concentration of the metabolically active agent of the test prodrug that yields a 50% reduction in the amount of a non-structural protein produced as compared to a control sample (IC50). A single non-structural protein may be quantified or multiple non-structural proteins may be quantified. Antibodies suitable for carrying out such immunoblot assays are available commercially (e.g., from BIODESIGN International, Saco, Me.).
Certain prodrugs of the invention, which may inhibit HCV translation or replication prior to metablism and/or are metabolized into active agents, were also tested for their ability to inhibit HCV replication using a quantitative Western blot analysis with antibodies specific for the HCV NS5A or other non-structural proteins. Actively dividing 9-13 replicon cells were seeded into 6-well plates at a density of 1×10^5 cells/well in a volume of 2 ml/well and incubated at 37° C. and 5% CO2 for 24 hours. Various concentrations of test prodrugs (in a volume of 10 ul) were added to the wells and the cells incubated for another 48 hours. Protein samples were prepared from the cultured cells, resolved on a SDS-PAGE gel and transferred to a nitrocellulose membrane. The membrane was blocked with 5% non-fat milk in PBS for 1 hour at room temperature. Primary antibody (anti NS5A antibody; BIODESIGN International, Saco, Me.) incubation was performed for 1 hour at room temperature, after which the membrane was washed 3 times (for 15 min per time) with PBST (PBS plus 0.1% Tween 20). Horseradish peroxidase conjugated secondary antibody incubation was performed for 1 hour at room temperature and the membrane was washed 3 times (for 15 min per time) with PBST. The membrane was then soaked in substrate solution (Pierce) and exposed to a film or quantified using an imager. In this assay, the amount of test prodrug that is believed to be transformed into an active agent under the given conditions that yielded a 50% reduction in the amount of NS5A protein translated as compared to a control sample (IC50) was determined.

[2] = tested on: HCV replicon in 5-2 Luc replicon-comprising cells; assay: HCV replicon assay (luciferase; HEPC_REPLICON-LUC); assay type: cell-based, Hepatitis C virus; conditions: Hepatitis C virus
Text: In one embodiment, the inhibitory activity of the metabolically active agent of the prodrug can be confirmed in a replicon assay that assesses the ability of a test compound to block or inhibit HCV replication in replicon cells. One example of a suitable replicon assay is the liver cell-line Huh 7-based replicon assay described in Lohmann et al., 1999, Science 285:110-113. A specific example of this replicon assay which utilizes luciferase translation is provided in the Examples Section. In one embodiment of this assay, the amount of test prodrug that yields a 50% reduction in translation as compared to a control cell (IC50) may be determined.
The inhibitory activity of certain prodrugs of the invention, which may inhibit HCV translation or replication prior to metablism and/or are metabolized into active agents, was confirmed using an HCV replicon assay. The HCV replicon can include such features as the HCV 5′ untranslated region including the HCV IRES, the HCV 3′ untranslated region, selected HCV genes encoding HCV polypeptides, selectable markers, and a reporter gene such as luciferase, GFP, etc. In the assay, actively dividing 5-2 Luc replicon-comprising cells (obtained from Ralf Bartenschlager; see Lohmann et al., 1999, Science 285:110-113) were seeded at a density of between about 5,000 and 7,500 cells/well onto 96 well plates (about 90 µl of cells per well) and incubated at 37° C. and 5% CO2 for 24 hours. Then, the test prodrug (in a volume of about 10 PI) was added to the wells at various concentrations and the cells were incubated for an additional 24-48 hours before luciferase assay. The media was aspirated from each well and Bright-Glo (Promega, Madison, WI) luciferase assay reagents were added to each well according to the manufacturer's instructions. Briefly, the BrightGlo reagent was diluted 1:1 with PBS and 100 µl of diluted reagent was added to each well. After 5 min of incubation at room temperature, luciferin emission was quantified with a luminometer. In this assay, the amount of test prodrug that yielded a 50% reduction in luciferase emission (IC50) was determined. This IC50 value may represent the antiviral activity of the prodrug itself, the activity of prodrug transformed into its active metabolized form, or a combination of the two.
In TABLES 3 through 12, a value of “+” indicates an IC50 of 10 μM or less in the specified assay; a value of “−” indicates an IC50 of greater than 10 μM in the specified assay.

[3] = Rat pharmacokinetic study, portal and jugular vein cannula, oral administration; assay type: in vivo
Procedure: Pharamcokinetic studies were conducted in rats containing surgically implanted cannula in the portal and jugular veins. Blood samples were taken simultaneously from both cannula at various times after oral administration of the compounds. In the portal vein, the prodrugs are detected and, in some cases, the active compound, A-B-C-NHCOCHX2, has also been detected. The presence of active compound in the portal vein samples has been attributed to metabolism of the prodrug in transit through the gut wall. […] In the jugular samples, many, but not all, of the prodrugs have been detected in systemic circulation, depending on the hepatic extraction ratio of the prodrug.
Compounds were dissolved in a mixture of TPGS:PEG:PG (35%:60%:5%) and diluted with saline for oral administration. Typically, 6.5mg of compound was dissolved in 1 ml of the organic mixture and added to 5.5 ml of saline. Animals were dosed with 5 ml/kg of this mixture to give a typical dose of 5 mg/kg. All animal studies were conducted in male SpraqueDawley rats and the animals were fasted overnight prior to dose administration. Surgeries (to implant blood sampling cannula) were conducted at least two days prior to the study. […] Samples were centrifuged and the supernatant was analyzed by LC/MS/MS using the procedures outlined above. […]

[4] = Biliary excretion in rats after oral administration; assay type: in vivo; conditions: rat, four hours after oral administration
Procedure: Evidence for the conversion of prodrug 1107 to its active metabolite in rat liver was obtained by measuring prodrug and active compound concentrations in bile fluid.
Compounds were dissolved in a mixture of TPGS:PEG:PG (35%:60%:5%) and diluted with saline for oral administration. Typically, 6.5mg of compound was dissolved in 1 ml of the organic mixture and added to 5.5 ml of saline. Animals were dosed with 5 ml/kg of this mixture to give a typical dose of 5 mg/kg. All animal studies were conducted in male SpraqueDawley rats and the animals were fasted overnight prior to dose administration. Surgeries (to implant blood sampling cannula) were conducted at least two days prior to the study. Blood samples (100 μl) were collected using sodium heparin as anticoagulant and added to 300 μl of a mixture of acetate buffer (100 mM, pH=6.5):acetonitrile:ethanol:DMSO (2:1:1:2 v/v). Samples were centrifuged and the supernatant was analyzed by LC/MS/MS using the procedures outlined above. Standard were prepared similarly using fresh rat blood from naive animals.
Esterases are present in various tissues in the liver and may further degrade the active parent compound prior to reaching the HepC virus that is localized within hepatocyte cells. Experiments with radio-labeled the active parent compound indicate that the active parent compound is excreted from the body through bile (data not shown). […]

[5] = Table 14, read-out: HEPC_REPLICON-LUC Result Value

SMILES | pIC50 ([1]; Table 14) | pIC50 [2, 5] | also measured
CCCNC(=O)Oc1c(C)cc(CN(C(=O)C(Cl)Cl)c2ccnc(-c3cc(-c4c(Cl)cccc4Cl)no3)c2)cc1C [Cpd. 1027, 4-((2,2-Dichloro-N-(2-(3-(2,6-dichlorophenyl)isoxazol-5-yl)pyridin4-yl)acetamido)methyl)-2,6-dimethylphenyl Propylcarbamate] | 4.70 to 6.00 | – | –
O=C(C(Cl)Cl)N(COCCc1ccccn1)c1ccnc(-c2cc(-c3c(Cl)cccc3Cl)no2)c1 [Cpd. 1028, 2,2-Dichloro-N-(2-(3-(2,6-dichlorophenyl)isoxazol-5-yl)pyridin-4-yl)-N-((2-(pyridin-2-yl)ethoxy)methyl)acetamide] | < 4.70 | – | –
CCOP(=O)(OCC)Oc1ccc(CCCN(C(=O)C(Cl)Cl)c2ccnc(-c3cc(-c4c(Cl)cccc4Cl)no3)c2)cc1 [Cpd. 1038, 4-(3-(2,2-Dichloro-N-(2-(3-(2,6-dichlorophenyl)isoxazol-5-yl)pyridin-4-yl)acetamido)propyl)phenyl Diethyl Phosphate] | – | – | pIC50 [1]: 4.70 to 6.00
CC(C)(C)OC(=O)N1CCN(c2ccc(CCCN(C(=O)C(Cl)Cl)c3ccnc(-c4cc(-c5c(Cl)cccc5Cl)no4)c3)cc2)CC1 [Cpd. 1039, tert-Butyl 4-(4-(3-(2,2-Dichloro-N-(2-(3-(2,6-dichlorophenyl)isoxazol-5-yl)pyridin-4yl)acetamido)propyl)phenyl)piperazine-1-carboxylate] | < 4.70 | – | –
CC(C)(C)OC(=O)c1ccc(CCCN(C(=O)C(Cl)Cl)c2ccnc(-c3cc(-c4c(Cl)cccc4Cl)no3)c2)cc1 [Cpd. 1040, tert-Butyl 4-(3-(2,2-Dichloro-N-(2-(3-(2,6-dichlorophenyl)isoxazol-5-yl)pyridin-4-yl)acetamido)propyl)benzoate] | 4.70 to 6.00 | – | –
CC(C)(C)OP(=O)(Cc1ccc(CCCN(C(=O)C(Cl)Cl)c2ccnc(-c3cc(-c4c(Cl)cccc4Cl)no3)c2)cc1)OC(C)(C)C [Cpd. 1041, Di-tert-Butyl 4-(3-(2,2-Dichloro-N-(2-(3-(2,6-dichlorophenyl)isoxazol-5-yl)pyridin-4-yl)acetamido)propyl)benzylphosphonate] | 4.70 to 6.00 | 4.70 to 6.00 | –
O=C(C(Cl)Cl)N(CCCc1ccc(CP(=O)(O)O)cc1)c1ccnc(-c2cc(-c3c(Cl)cccc3Cl)no2)c1 [Cpd. 1042, 4-(3-(2,2-Dichloro-N-(2-(3-(2,6-dichlorophenyl)isoxazol-5-yl)pyridin-4-yl)acetamido)propyl)benzylphosphonic Acid] | < 4.70 | – | –
O=C(C(Cl)Cl)N(CCCc1ccc(N2CCNCC2)cc1)c1ccnc(-c2cc(-c3c(Cl)cccc3Cl)no2)c1 [Cpd. 1043, 2,2-Dichloro-N-(2-(3-(2,6-dichlorophenyl)isoxazol-5-yl)pyridin-4-yl)-N-(3-(4-(piperazin-1-yl)phenyl)propyl)acetamide] | 4.70 to 6.00 | 4.70 to 6.00 | –
O=C(c1cccc(-c2cc(-c3c(Cl)cccc3Cl)no2)c1)N(Cc1oc(=O)oc1COC1CC(O)C(O)C(CO)O1)C(=O)C(Cl)Cl (stereo not shown) [Cpd. 1044] | > 6.00 | > 6.00 | –
CC(C)(C)c1oc(=O)oc1CN(C(=O)C(Cl)Cl)c1ccnc(-c2cc(-c3c(Cl)cccc3Cl)no2)c1 [Cpd. 1107, 2,2-dichloro-N-[2′-[3′-(2′,6′-dichlorophenyl)-5′-isoxazoyl](4-pyridyl)]-N-[(5-t-butyl-1,3-dioxolene-2-one4-yl)methylene] acetamide] | – | – | Cmax ([3]; Sprague-Dawley, rat, whole blood, typical dose of 5 mg/kg, male rats, read-out: Rat PK Cmax, Prodrug): 510 ng/mL; Rat PK Hepatic extraction ratio of Prodrug ([3]; portal and jugular vein sampling): 0.97; Prodrug and resultant active compound levels in bile fluid [4]: High levels; pIC50 ([2]; Tables 3-12, 50% reduction in luciferase emission, 5-2 Luc replicon cells, read-out: Replicon (IC50)): ≥ 5.00
